# From a melting point compilation (Tetko et al.; mined from patent text by program, amines drawn as free bases though some values may be those of a salt)
row,SMILES,melting point [°C]
1,Cc1ccc(-c2[nH]c(-c3ccc(C(F)(F)F)cc3)nc2C(=O)Nc2nccs2)s1,235 to 237
2,CC(C)=NOCc1nc2c(N)nc3ccccc3c2n1CC(C)(C)O,212 to 216
3,CC(C)(O)c1ccc(S(N)(=O)=O)o1,116 to 118
4,COc1ccc(OC(C(=O)O)c2ccccc2)cc1 (centres undefined),108 to 110
5,CCCC1N(C)c2cccc3cccc(c23)N1C,70 to 71
6,O=C1OC(c2ccccc2)(c2ccccc2)C2CN(C3CCN(Cc4ccccc4)CC3)CCN12 (centres undefined),153 to 155
7,c1ccc2c(c1)COC2=N[C@@H]1CCc2ccccc21,79 to 80
8,CC(=O)c1ccc(CCNS(=O)(=O)c2ccc(C)cc2)cc1,124 to 126
9,O=C1c2ccccc2C(=O)c2sc(Nc3ccccc3)nc21,> 260
10,FC(F)(F)c1cccc(N2CCN(c3nc4cccc5c4n3CCC5)CC2)c1,158 to 159
11,CCC(CC)N(O)C(=O)Nc1ccc(Oc2ccccc2)cc1,124 to 125
12,CN(C)Cc1cc(C(=O)c2ccc(Cl)s2)cc(C(C)(C)C)c1O,137 to 138
13,Cc1nn(C)c(OCC(=O)C(C)(C)CCl)c1C(=O)c1ccc(Cl)cc1Cl,58 to 60
14,CCCc1nn(CC)c(C(=O)O)c1Cc1ccc(-c2ccccc2NS(=O)(=O)C(F)(F)F)cc1,68 to 72
15,CCCCCCCCCCCCCCCCSCC1(CNS(=O)(=O)CCCCl)CCCO1 (centres undefined),44.5 to 45.5
16,O=C(O)Cc1cc(S)n2ncnc2n1,283 to 286
17,Oc1cccc(NCCc2ccccn2)c1,118 to 120
18,COc1ccc(S(=O)(=O)Nc2ncnc(OCCO)c2Cc2ccccc2OC)cc1,161 to 162
19,CNS(=O)(=O)c1ccc(C)c(CCCOCCn2cnc3c(N)nc4ccccc4c32)c1,207 to 209
20,CC1CCCC(C)N1Cc1ccc2cc(NC(=O)c3ccc(-c4ccccc4)cc3)ccc2n1 (centres undefined),180 to 181
21,CC(C)(C)OC(=O)N[C@@H]1C(=O)N(CCOCc2ccccc2)c2ccccc2-c2ccccc21,132 to 134
22,CC(C)(C#N)c1cc(Cc2cncnc2)cc(C(C)(C)C#N)c1,132 to 134
23,COc1cc2c(N)nc(N3CCN(c4nc5ccccc5s4)CC3)nc2c(OC)c1OC,> 250
24,COc1cc(CCNC(=O)N(C)O)cc(OC)c1,121 to 123
25,CCCc1cc(N2CCC(NCC(O)c3ccnc4ccccc34)CC2)nc2sc(C(N)=O)c(N)c12 (centres undefined),170 to 172

row,SMILES,melting point [°C]
1,O=S(=O)(NCCc1cccc(CCNS(=O)(=O)c2ccc(Cl)cc2)c1)c1ccc(Cl)cc1,135 to 136
2,COc1cc(N)c(Cl)cc1C(=O)NC1CCN(CCCC2(C)NC(=O)NC2=O)CC1OC (centres undefined),236
3,CC1CC(C)(CO)CN1c1ccc(C#N)c2ccccc12 (centres undefined),100 to 101
4,CCCCCC/C=C/CCCCCCCC(=O)Nc1nc(CC(=O)O)cs1,117 to 118
5,O=C(Cn1c(-c2ccc(F)cc2)ncc(NC(=O)OCc2ccccc2)c1=O)NC(Cc1ccccc1)C(=O)C1=NCCO1 (centres undefined),215 to 220
6,C[C@@H]1CN(CCCn2c3ccc(O)cc3c3c4c(c(-c5ccccc5Cl)cc32)C(=O)NC4=O)C[C@H](C)N1,165 to 172
7,CCCCOC(C=Cc1ccc(C(=O)O)cc1)c1ccc2c(c1)C(C)(C)CCC2(C)C (racemic),78 to 80
8,CC(C)(C)[Si](C)(C)OCc1cc(-c2ccc3nc(Cl)cn3c2)cs1,100 to 104
9,CC(C)(C)NS(=O)(=O)c1cnc(-c2cn(-c3nc(-c4ccc(Cl)cc4)cc(C(F)(F)F)n3)cn2)s1,261
10,CC(C)(C)c1ccc(C(O)(c2ccc(C(C)(C)C)cc2)c2ncc[nH]2)cc1,215 to 216
11,COc1cc(-c2cc3ccccc3[nH]2)ccc1O,165
12,CN(C)C1(c2ccccc2)CCC2(NCCc3c2[nH]c2ccccc32)C(Sc2ccccc2)C1 (centres undefined),171 to 173
13,CCn1c(-c2ccc(N)cc2)n[nH]c1=S,240 to 250
14,Cc1ccccc1COC1(C)COC(CCl)OC1 (centres undefined),57 to 58
15,COC(=O)C(C)(O[Si](C)(C)C(C)(C)C)c1ccc([N+](=O)[O-])cc1 (centres undefined),65 to 66
16,O=c1nc(NCCCOc2cc(CN3CCCCC3)ccn2)c2ccccc2[nH]1,189 to 192
17,O=C(Nc1ccccc1)c1cccc(-c2ccc(OCC(O)CCc3cccnc3)cc2)c1 (centres undefined),90 to 93
18,Cn1c(C(F)(F)F)cc(=O)n(-c2ccc3snc(CN(C(=O)OC(C)(C)C)S(C)(=O)=O)c3c2)c1=O,109 to 111
19,C/C(=C(\C#N)C(N)=S)N1CCCCC1,161 to 166
20,CN(C)c1ccc(Nc2cccc3c2C(=O)N(C2CCC(=O)NC2=O)C3=O)cc1 (centres undefined),> 260
21,N#Cc1cc(F)cc2c1OCCC21SC(=O)NC1=O (centres undefined),230 to 232
22,C=CCN1CCC(Nc2nc3cncnc3n2Cc2ccc(F)cc2)CC1,145
23,O=C(Cn1cnc2cc(-c3ccc(Cl)cc3)sc2c1=O)c1ccc2c(c1)CCN(C(=O)C(F)(F)F)CC2,285 to 287
24,O=C(O)CC[C@@H](CSc1ccc(Cc2ccccc2)cc1)NC(=O)CCCCCCc1ccccc1,89 to 91.5
